Measured values reported in PubChem BioAssay AID248 (DTP/NCI, 2004).
Several values for one entry are separate records, joined by “and”; a condition that tells them apart may be missing. Equal entries are not always repeated. Toxic doses and inconclusive results are not listed.

Tested on: L1210 leukemia ip in BDF1 mice, survival T/C
Assay: NCI In Vivo Anticancer Drug Screen. Data for tumor model L1210 Leukemia (intraperitoneal) in B6D2F1 (BDF1) mice
Conditions: endpoint: mean survival time, higher = longer survival
In short: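 Read-out is survival time, reported as the treated-group measurement over the vehicle-control measurement.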

[1] = dose: 100.0 mg/kg/injection, schedule: Q04DX003 (ip), vehicle: saline with Tween-80
[2] = dose: 100.0 mg/kg/injection, schedule: Q01DX009 (ip), vehicle: Klucel (hydroxypropylcellulose) (HPC)
[3] = dose: 100.0 mg/kg/injection, schedule: Q04DX003 (ip), vehicle: Klucel (hydroxypropylcellulose) (HPC)
[4] = dose: 200.0 mg/kg/injection, schedule: Q01DX009 (ip), vehicle: Klucel (hydroxypropylcellulose) (HPC)
[5] = dose: 200.0 mg/kg/injection, schedule: Q04DX003 (ip), vehicle: Klucel (hydroxypropylcellulose) (HPC)
[6] = dose: 400.0 mg/kg/injection, schedule: Q04DX003 (ip), vehicle: Klucel (hydroxypropylcellulose) (HPC)
[7] = dose: 100.0 mg/kg/injection, schedule: Q04DX002 (ip), vehicle: Klucel (hydroxypropylcellulose) (HPC)
[8] = dose: 200.0 mg/kg/injection, schedule: Q04DX002 (ip), vehicle: Klucel (hydroxypropylcellulose) (HPC)
[9] = dose: 400.0 mg/kg/injection, schedule: Q04DX002 (ip), vehicle: Klucel (hydroxypropylcellulose) (HPC)
[10] = dose: 100.0 mg/kg/injection, schedule: Q01DX001 (ip), vehicle: saline
[11] = dose: 10.0 mg/kg/injection, schedule: Q01DX001 (ip), vehicle: saline
[12] = dose: 20.0 mg/kg/injection, schedule: Q01DX001 (ip), vehicle: saline
[13] = dose: 40.0 mg/kg/injection, schedule: Q01DX001 (ip), vehicle: saline
[14] = dose: 80.0 mg/kg/injection, schedule: Q01DX001 (ip), vehicle: saline
[15] = dose: 5.0 mg/kg/injection, schedule: Q01DX001 (ip), vehicle: saline
[16] = dose: 100.0 mg/kg/injection, schedule: Q01DX001 (ip), vehicle: carboxymethylcellulose (CMC)

CCOC1=C(Cl)C(=O)C(OCC)=C(Cl)C1=O
T/C (dose: 4.0 mg/kg/injection, schedule: Q04DX003 (ip), vehicle: DMSO): 98 % of control
T/C (dose: 6.0 mg/kg/injection, schedule: Q04DX003 (ip), vehicle: DMSO): 98 % of control
T/C (dose: 9.0 mg/kg/injection, schedule: Q04DX003 (ip), vehicle: DMSO): 96 % of control and 86 % of control
T/C (dose: 75.0 mg/kg/injection, schedule: Q01DX001 (ip), vehicle: alcohol): 92 % of control
T/C (dose: 150.0 mg/kg/injection, schedule: Q01DX001 (ip), vehicle: alcohol): 97 % of control

Cc1ccc(/C=C2/C=C(c3ccccc3)OC2=O)cc1
T/C (dose: 50.0 mg/kg/injection, schedule: Q01DX009 (ip), vehicle: alcohol): 87 % of control
T/C (dose: 100.0 mg/kg/injection, schedule: Q01DX009 (ip), vehicle: alcohol): 87 % of control
T/C (dose: 100.0 mg/kg/injection, schedule: Q04DX003 (ip), vehicle: alcohol): 92 % of control
T/C (dose: 200.0 mg/kg/injection, schedule: Q01DX009 (ip), vehicle: alcohol): 88 % of control
T/C (dose: 200.0 mg/kg/injection, schedule: Q04DX003 (ip), vehicle: alcohol): 95 % of control

CSc1nc2c(N)ncnc2n1C1OC(CO)C(O)C1O (stereo unspecified)
T/C (dose: 100.0 mg/kg/injection, schedule: Q01DX005 (ip), vehicle: saline): 98 % of control
T/C (dose: 200.0 mg/kg/injection, schedule: Q01DX005 (ip), vehicle: saline): 101 % of control

[O-][n+]1c2ccccc2c(Oc2ccccc2)c2ccc3ccccc3c21
T/C [1]: 95 % of control
T/C (dose: 400.0 mg/kg/injection, schedule: Q04DX003 (ip), vehicle: saline with Tween-80): 92 % of control

CC(=O)c1ccc2c(c1)Nc1ccccc1S2
T/C (dose: 50.0 mg/kg/injection, schedule: Q04DX003 (ip), vehicle: Klucel (hydroxypropylcellulose) (HPC)): 97 % of control
T/C [2]: 104 % of control and 102 % of control
T/C [3]: 101 % of control
T/C [4]: 106 % of control and 94 % of control
T/C [5]: 102 % of control
T/C (dose: 400.0 mg/kg/injection, schedule: Q01DX009 (ip), vehicle: Klucel (hydroxypropylcellulose) (HPC)): 95 % of control and 91 % of control
T/C [6]: 91 % of control

CCCCCCCCc1c(C)nc(N)[nH]c1=O
T/C [7]: 100 % of control
T/C [8]: 100 % of control
T/C [9]: 104 % of control

CCN(CC)C(=O)C1C2C=CC(C2)C1C(=O)N(CC)CC (stereo unspecified)
T/C [1]: 98 % of control
T/C (dose: 200.0 mg/kg/injection, schedule: Q04DX003 (ip), vehicle: saline with Tween-80): 98 % of control

CC(=O)OC1CCC2(C)C(=CCC3C2CCC2(C)C3CC3C2C(c2ccccc2)=NN3c2ccccc2)C1 (stereo unspecified)
T/C (dose: 6.0 mg/kg/injection, schedule: Q04DX002 (ip), vehicle: Klucel (hydroxypropylcellulose) (HPC)): 93 % of control
T/C (dose: 12.5 mg/kg/injection, schedule: Q04DX002 (ip), vehicle: Klucel (hydroxypropylcellulose) (HPC)): 104 % of control
T/C (dose: 25.0 mg/kg/injection, schedule: Q04DX002 (ip), vehicle: Klucel (hydroxypropylcellulose) (HPC)): 96 % of control
T/C (dose: 50.0 mg/kg/injection, schedule: Q04DX002 (ip), vehicle: Klucel (hydroxypropylcellulose) (HPC)): 96 % of control

O=P(OCCCCl)(OCCCCl)C(Cl)(Cl)Cl
T/C [10]: 102 % of control
T/C (dose: 200.0 mg/kg/injection, schedule: Q01DX001 (ip), vehicle: saline): 101 % of control
T/C (dose: 400.0 mg/kg/injection, schedule: Q01DX001 (ip), vehicle: saline): 101 % of control

CN(C)CSc1ccccc1
T/C [11]: 101 % of control
T/C [12]: 110 % of control
T/C [13]: 104 % of control
T/C [14]: 98 % of control

O=C(C[n+]1ccccc1-c1ccccn1)c1ccccc1
T/C [15]: 103 % of control
T/C [11]: 103 % of control
T/C [12]: 105 % of control
T/C [13]: 113 % of control

CS(=O)(=O)c1nsc(S(C)(=O)=O)c1C#N
T/C (dose: 100.0 mg/kg/injection, schedule: Q04DX003 (ip), vehicle: carboxymethylcellulose (CMC)): 95 % of control
T/C (dose: 200.0 mg/kg/injection, schedule: Q04DX003 (ip), vehicle: carboxymethylcellulose (CMC)): 97 % of control
T/C (dose: 400.0 mg/kg/injection, schedule: Q04DX003 (ip), vehicle: carboxymethylcellulose (CMC)): 95 % of control

CCOC(=O)n1cccc(C)c1=N
T/C [16]: 102 % of control
T/C (dose: 200.0 mg/kg/injection, schedule: Q01DX001 (ip), vehicle: carboxymethylcellulose (CMC)): 100 % of control
T/C (dose: 400.0 mg/kg/injection, schedule: Q01DX001 (ip), vehicle: carboxymethylcellulose (CMC)): 102 % of control

Cc1ccc(NC(=O)COc2cc(Cl)c(Cl)cc2Cl)cc1[N+](=O)[O-]
T/C (dose: 25.0 mg/kg/injection, schedule: Q01DX009 (ip), vehicle: Klucel (hydroxypropylcellulose) (HPC)): 86 % of control
T/C (dose: 50.0 mg/kg/injection, schedule: Q01DX009 (ip), vehicle: Klucel (hydroxypropylcellulose) (HPC)): 100 % of control
T/C (dose: 75.0 mg/kg/injection, schedule: Q01DX009 (ip), vehicle: Klucel (hydroxypropylcellulose) (HPC)): 100 % of control and 92 % of control

O=C(O)c1cc(C(=O)O)c(C(=O)O)cc1C(=O)O (tested in a mixture with another compound)
T/C [15]: 107 % of control
T/C [11]: 103 % of control
T/C [12]: 98 % of control
T/C [13]: 104 % of control
T/C [14]: 96 % of control
T/C [10]: 98 % of control

Nc1nc2nnc(-c3ccccc3)c(-c3ccccc3)n2n1
T/C (dose: 100.0 mg/kg/injection, schedule: Q01DX001 (ip), vehicle: Klucel (hydroxypropylcellulose) (HPC)): 93 % of control
T/C [3]: 96 % of control
T/C (dose: 200.0 mg/kg/injection, schedule: Q01DX001 (ip), vehicle: Klucel (hydroxypropylcellulose) (HPC)): 93 % of control
T/C [5]: 101 % of control
T/C (dose: 400.0 mg/kg/injection, schedule: Q01DX001 (ip), vehicle: Klucel (hydroxypropylcellulose) (HPC)): 92 % of control
T/C [6]: 91 % of control

Cc1ccc(NC(=O)N(CCCl)N=O)cc1C
T/C (dose: 0.5 mg/kg/injection, schedule: Q01DX009 (ip), vehicle: carboxymethylcellulose (CMC)): 114 % of control
T/C (dose: 1.0 mg/kg/injection, schedule: Q01DX009 (ip), vehicle: carboxymethylcellulose (CMC)): 119 % of control
T/C (dose: 1.5 mg/kg/injection, schedule: Q01DX001 (ip), vehicle: carboxymethylcellulose (CMC)): 114 % of control
T/C (dose: 2.0 mg/kg/injection, schedule: Q01DX009 (ip), vehicle: carboxymethylcellulose (CMC)): 103 % of control
T/C (dose: 4.0 mg/kg/injection, schedule: Q01DX009 (ip), vehicle: carboxymethylcellulose (CMC)): 158 % of control
T/C (dose: 6.0 mg/kg/injection, schedule: Q01DX001 (ip), vehicle: carboxymethylcellulose (CMC)): 119 % of control
T/C (dose: 8.8 mg/kg/injection, schedule: Q01DX009 (ip), vehicle: carboxymethylcellulose (CMC)): 249 % of control
T/C (dose: 13.3 mg/kg/injection, schedule: Q01DX009 (ip), vehicle: carboxymethylcellulose (CMC)): 159 % of control
T/C (dose: 19.0 mg/kg/injection, schedule: Q01DX001 (ip), vehicle: carboxymethylcellulose (CMC)): 173 % of control
T/C (dose: 29.0 mg/kg/injection, schedule: Q01DX001 (ip), vehicle: carboxymethylcellulose (CMC)): 214 % of control
T/C (dose: 30.0 mg/kg/injection, schedule: Q01DX009 (ip), vehicle: carboxymethylcellulose (CMC)): 103 % of control
T/C (dose: 44.0 mg/kg/injection, schedule: Q01DX001 (ip), vehicle: carboxymethylcellulose (CMC)): 210 % of control and 298 % of control
T/C (dose: 66.0 mg/kg/injection, schedule: Q01DX001 (ip), vehicle: carboxymethylcellulose (CMC)): 257 % of control
T/C [16]: 218 % of control and 263 % of control

C1=CCC2OC2C1 (stereo unspecified)
T/C (dose: 100.0 mg/kg/injection, schedule: Q01DX001 (ip), vehicle: acetone): 103 % of control
T/C [2]: 105 % of control
T/C (dose: 200.0 mg/kg/injection, schedule: Q01DX001 (ip), vehicle: acetone): 95 % of control
T/C [4]: 103 % of control
T/C (dose: 400.0 mg/kg/injection, schedule: Q01DX001 (ip), vehicle: acetone): 94 % of control

O=C(O)C(C(=O)O)C(=O)O
T/C (dose: 75.0 mg/kg/injection, schedule: Q01DX001 (ip), vehicle: saline): 94 % of control
T/C (dose: 150.0 mg/kg/injection, schedule: Q01DX001 (ip), vehicle: saline): 94 % of control

O=C1OC(c2cccc(Cl)c2)=N/C1=C\c1ccc(Cl)cc1
T/C [7]: 100 % of control
T/C [8]: 92 % of control
T/C [9]: 92 % of control
